Source: patent publication US20260317309A1, “N-HETEROCYLIC GPCR RECEPTOR AGONISTS, PHARMACEUTICAL COMPOSITIONS COMPRISING THE SAME, AND METHODS FOR THEIR USE” (Carmot Therapeutics, Inc., priority 2022, published 2026)
pEC50: −log10 of the molar value.

Target: T1, human GLP-1 receptor (Homo sapiens, UniProt P43220)
T1 construct: expressed in transfected cells
Test: GLP-1R cAMP assay (cAMP accumulation in CHO cells stably overexpressing the human GLP-1 receptor, HitHunter kit)
Format: cell-based
Settings: CHO cells stably overexpressing human GLP-1R, 30 min, 20-point dose response in triplicate
Method in brief: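 CHO cells stably expressing the human receptor (10,000/well) in HBSS with 10 mM HEPES and 625 μM IBMX, given compound as a 20-point dose response in triplicate for 30 min. cAMP was read by luminescent enzyme-complementation detection after overnight incubation, and EC50 was fitted from dose-response curves.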

T1 sequence (P43220 24-463): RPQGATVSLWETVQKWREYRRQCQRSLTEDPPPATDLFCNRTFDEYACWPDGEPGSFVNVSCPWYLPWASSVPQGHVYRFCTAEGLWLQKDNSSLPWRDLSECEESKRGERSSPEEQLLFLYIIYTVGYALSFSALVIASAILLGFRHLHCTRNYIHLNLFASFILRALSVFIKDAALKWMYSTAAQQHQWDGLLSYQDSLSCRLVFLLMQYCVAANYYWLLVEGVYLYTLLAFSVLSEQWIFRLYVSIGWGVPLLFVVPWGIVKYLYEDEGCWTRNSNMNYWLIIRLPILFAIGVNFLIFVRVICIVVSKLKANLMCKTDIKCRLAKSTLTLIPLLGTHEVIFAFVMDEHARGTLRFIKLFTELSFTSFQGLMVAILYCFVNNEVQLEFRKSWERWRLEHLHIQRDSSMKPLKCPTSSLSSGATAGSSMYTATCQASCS

Row | pEC50 | Compound
1 | 9.00 to 10.00 | C[C@H](Cn1c(CN2CC[C@H](Oc3ccnc(COc4ncc(C#N)cc4F)n3)C[C@@H]2C)nc2ccc(C(=O)O)cc21)OC(F)F [Compound 626, 2-(((2S,4S)-4-((2-(((5-cyano-3-fluoropyridin-2-yl)oxy)methyl)pyrimidin-4-yl)oxy)-2-methylpiperidin-1-yl)methyl)-1-((R)-2-(difluoromethoxy)propyl)-1H-benzo[d]imidazole-6-carboxylic acid]
2 | 9.00 to 10.00 | C[C@H](Cn1c(CN2CC[C@H](Oc3ccnc(COc4ncc(F)cc4C#N)n3)C[C@@H]2C)nc2ccc(C(=O)O)cc21)OC(F)F [Compound 627, 2-(((2S,4S)-4-((2-(((3-Cyano-5-fluoropyridin-2-yl)oxy)methyl)pyrimidin-4-yl)oxy)-2-methylpiperidin-1-yl)methyl)-1-((R)-2-(difluoromethoxy)propyl)-1H-benzo[d]imidazole-6-carboxylic acid]
3 | 9.00 to 10.00 | O=C(O)c1cc(F)c2nc(CN3CCC(Oc4ccnc(COc5ncc(F)cc5F)n4)CC3)n(C[C@@H]3CCO3)c2c1 [Compound 628, (S)-2-((4-((2-(((3,5-difluoropyridin-2-yl)oxy)methyl)pyrimidin-4-yl)oxy)piperidin-1-yl)methyl)-4-fluoro-1-(oxetan-2-ylmethyl)-1H-benzo[d]imidazole-6-carboxylic acid]
4 | > 10.00 | C[C@H]1C[C@@H](Oc2ccnc(COc3ncc(F)cc3C#N)n2)CCN1Cc1nc2c(F)cc(C(=O)O)cc2n1C[C@@H]1CCO1 [Compound 629, 2-(((2S,4S)-4-((2-(((3-cyano-5-fluoropyridin-2-yl)oxy)methyl)pyrimidin-4-yl)oxy)-2-methylpiperidin-1-yl)methyl)-4-fluoro-1-(((S)-oxetan-2-yl)methyl)-1H-benzo[d]imidazole-6-carboxylic acid]
5 | 9.00 to 10.00 | C[C@H]1C[C@@H](Oc2ccnc(COc3ncc(F)cc3C#N)n2)CCN1Cc1nc2ccc(C(=O)O)cc2n1C[C@@H]1CCO1 [Compound 630, 2-(((2S,4S)-4-((2-(((3-Cyano-5-fluoropyridin-2-yl)oxy)methyl)pyrimidin-4-yl)oxy)-2-methylpiperidin-1-yl)methyl)-1-(((S)-oxetan-2-yl)methyl)-1H-benzo[d]imidazole-6-carboxylic acid]
6 | 9.00 to 10.00 | C[C@H]1C[C@@H](Oc2ccnc(COc3ncc(C#N)cc3F)n2)CCN1Cc1nc2ccc(C(=O)O)cc2n1C[C@@H]1CCCO1 [Compound 631, 2-(((2S,4S)-4-((2-(((5-cyano-3-fluoropyridin-2-yl)oxy)methyl)pyrimidin-4-yl)oxy)-2-methylpiperidin-1-yl)methyl)-1-(((S)-tetrahydrofuran-2-yl)methyl)-1H-benzo[d]imidazole-6-carboxylic acid]
7 | 9.00 to 10.00 | C[C@H]1C[C@@H](Oc2ccnc(COc3ncc(F)cc3F)n2)CCN1Cc1nc2ccc(C(=O)O)cc2n1C[C@@H]1CCCO1 [Compound 632, 2-(((2S,4S)-4-((2-(((3,5-Difluoropyridin-2-yl)oxy)methyl)pyrimidin-4-yl)oxy)-2-methylpiperidin-1-yl)methyl)-1-(((S)-tetrahydrofuran-2-yl)methyl)-1H-benzo[d]imidazole-6-carboxylic acid]
8 | 7.00 to 8.00 | C[C@H]1C[C@@H](Oc2ccnc(COc3ccc(F)cc3F)n2)CCN1Cc1nc2ccccc2n1C[C@@H]1CCO1 [Compound 633, 2-(((2S,4S)-4-((2-((2,4-Difluorophenoxy)methyl)pyrimidin-4-yl)oxy)-2-methylpiperidin-1-yl)methyl)-1-(((S)-oxetan-2-yl)methyl)-1H-benzo[d]imidazole]
9 | 9.00 to 10.00 | N#Cc1cnc(OCc2nccc(OC3CCN(Cc4nc5c(F)cc(C(=O)O)cc5n4C[C@@H]4CCO4)CC3)n2)c(F)c1 [Compound 634]
10 | 9.00 to 10.00 | C[C@H]1C[C@@H](Oc2ccnc(COc3ncc(C#N)cc3F)n2)CCN1Cc1nc2ccc(C(=O)O)cc2n1CCOCC(F)(F)F [Compound 635, 2-(((2S,4S)-4-((2-(((5-Cyano-3-fluoropyridin-2-yl)oxy)methyl)pyrimidin-4-yl)oxy)-2-methylpiperidin-1-yl)methyl)-1-(2-(2,2,2-trifluoroethoxy)ethyl)-1H-benzo[d]imidazole-6-carboxylic acid]
11 | 9.00 to 10.00 | C[C@H]1C[C@@H](Oc2ccnc(COc3ncc(C#N)cc3F)n2)CCN1Cc1nc2c(F)cc(C(=O)O)cc2n1CCOCC(F)(F)F [Compound 636, 2-(((2S,4S)-4-((2-(((5-cyano-3-fluoropyridin-2-yl)oxy)methyl)pyrimidin-4-yl)oxy)-2-methylpiperidin-1-yl)methyl)-4-fluoro-1-(2-(2,2,2-trifluoroethoxy)ethyl)-1H-benzo[d]imidazole-6-carboxylic acid]
12 | 8.00 to 9.00 | C[C@H]1C[C@@H](Oc2ccnc(COc3ccc(F)cc3F)n2)CCN1Cc1nc2ccc(CC(=O)O)cc2n1C[C@@H]1CCO1 [Compound 637, 2-(2-(((2S,4S)-4-((2-((2,4-difluorophenoxy)methyl)pyrimidin-4-yl)oxy)-2-methylpiperidin-1-yl)methyl)-1-(((S)-oxetan-2-yl)methyl)-1H-benzo[d]imidazol-6-yl) acetic acid]
13 | 7.00 to 8.00 | C[C@H]1C[C@@H](Oc2ccnc(COc3ccc(F)cc3F)n2)CCN1Cc1nc2ccc(C(=O)Nc3cccnc3)cc2n1C[C@@H]1CCO1 [Compound 638, 2-(((2S,4S)-4-((2-((2,4-Difluorophenoxy)methyl)pyrimidin-4-yl)oxy)-2-methylpiperidin-1-yl)methyl)-1-(((S)-oxetan-2-yl)methyl)-N-(pyridin-3-yl)-1H-benzo[d]imidazole-6-carboxamide]
14 | 7.00 to 8.00 | C[C@H]1C[C@@H](Oc2ccnc(COc3ccc(F)cc3F)n2)CCN1Cc1nc2ccc(CO)cc2n1C[C@@H]1CCO1 [Compound 639, (2-(((2S,4S)-4-((2-((2,4-difluorophenoxy)methyl)pyrimidin-4-yl)oxy)-2-methylpiperidin-1-yl)methyl)-1-(((S)-oxetan-2-yl)methyl)-1H-benzo[d]imidazol-6-yl)methanol]
15 | > 10.00 | N#Cc1ccc(OCc2nccc(O[C@H]3CC[C@H](Cc4nc5ccc(C(=O)O)cc5n4C[C@@H]4CCO4)CC3)n2)c(F)c1 [Compound 640, 1-{[(2S)-oxetan-2-yl]methyl}-2-{[(1r,4r)-4-({2-[(4-cyano-2-fluorophenoxy)methyl]pyrimidin-4-yl}oxy)cyclohexyl]methyl}-1H-1,3-benzodiazole-6-carboxylic acid]
16 | 6.30 to 7.00 | N#Cc1ccc(OCc2nccc(O[C@H]3CC[C@@H](Cc4nc5ccc(C(=O)O)cc5n4C[C@@H]4CCO4)CC3)n2)c(F)c1 [Compound 641, 1-{[(2S)-oxetan-2-yl]methyl}-2-{[(1s,4s)-4-({2-[(4-cyano-2-fluorophenoxy)methyl]pyrimidin-4-yl}oxy)cyclohcxyl]methyl}-1H-1,3-benzodiazole-6-carboxylic acid]
